Measured values as given in the NIST ThermoML archive (doi:10.1021/acs.jced.8b00037).
Numbers after ± are expanded uncertainties.

Test: molar heat capacity at constant volume
Details: Liquid, Vacuum adiabatic calorimetry

## COC [dimethyl ether]
272.69 K, 32476 kPa
  molar heat capacity at constant volume: 70.7 ± 0.53 J/K/mol
274.07 K, 15304 kPa
  molar heat capacity at constant volume: 70.14 ± 0.53 J/K/mol
276.21 K, 17379 kPa
  molar heat capacity at constant volume: 70.25 ± 0.53 J/K/mol
278.33 K, 19435 kPa
  molar heat capacity at constant volume: 70.27 ± 0.53 J/K/mol
279.17 K, 2674 kPa
  molar heat capacity at constant volume: 69.72 ± 0.52 J/K/mol
280.45 K, 21472 kPa
  molar heat capacity at constant volume: 70.38 ± 0.53 J/K/mol
281.36 K, 4596 kPa
  molar heat capacity at constant volume: 69.98 ± 0.53 J/K/mol
282.56 K, 23487 kPa
  molar heat capacity at constant volume: 70.94 ± 0.53 J/K/mol
283.54 K, 6506 kPa
  molar heat capacity at constant volume: 69.97 ± 0.53 J/K/mol
284.67 K, 25491 kPa
  molar heat capacity at constant volume: 70.96 ± 0.53 J/K/mol
285.71 K, 8399 kPa
  molar heat capacity at constant volume: 70.42 ± 0.53 J/K/mol
286.77 K, 27476 kPa
  molar heat capacity at constant volume: 70.72 ± 0.53 J/K/mol
287.87 K, 10279 kPa
  molar heat capacity at constant volume: 70.77 ± 0.53 J/K/mol
288.86 K, 29439 kPa
  molar heat capacity at constant volume: 71.64 ± 0.54 J/K/mol
290.03 K, 12145 kPa
  molar heat capacity at constant volume: 71.02 ± 0.53 J/K/mol
290.95 K, 31396 kPa
  molar heat capacity at constant volume: 71.89 ± 0.54 J/K/mol
292.18 K, 14000 kPa
  molar heat capacity at constant volume: 71.24 ± 0.53 J/K/mol
293.04 K, 33333 kPa
  molar heat capacity at constant volume: 71.85 ± 0.54 J/K/mol
294.33 K, 15843 kPa
  molar heat capacity at constant volume: 71.24 ± 0.53 J/K/mol
296.47 K, 17674 kPa
  molar heat capacity at constant volume: 70.96 ± 0.53 J/K/mol
298.61 K, 19489 kPa
  molar heat capacity at constant volume: 71.48 ± 0.54 J/K/mol
300.73 K, 2646 kPa
  molar heat capacity at constant volume: 71.27 ± 0.53 J/K/mol
300.75 K, 21296 kPa
  molar heat capacity at constant volume: 71.95 ± 0.54 J/K/mol
302.88 K, 23091 kPa
  molar heat capacity at constant volume: 71.44 ± 0.54 J/K/mol
302.96 K, 4292 kPa
  molar heat capacity at constant volume: 71.08 ± 0.53 J/K/mol
305.01 K, 24872 kPa
  molar heat capacity at constant volume: 71.85 ± 0.54 J/K/mol
305.18 K, 5930 kPa
  molar heat capacity at constant volume: 71.96 ± 0.54 J/K/mol
307.14 K, 26644 kPa
  molar heat capacity at constant volume: 72.77 ± 0.54 J/K/mol
307.41 K, 7569 kPa
  molar heat capacity at constant volume: 72.11 ± 0.54 J/K/mol
309.27 K, 28409 kPa
  molar heat capacity at constant volume: 73.16 ± 0.55 J/K/mol
309.62 K, 9196 kPa
  molar heat capacity at constant volume: 71.88 ± 0.54 J/K/mol
311.39 K, 30163 kPa
  molar heat capacity at constant volume: 72.97 ± 0.55 J/K/mol
311.84 K, 10814 kPa
  molar heat capacity at constant volume: 72.56 ± 0.54 J/K/mol
313.52 K, 31911 kPa
  molar heat capacity at constant volume: 73.2 ± 0.55 J/K/mol
314.06 K, 12436 kPa
  molar heat capacity at constant volume: 72.39 ± 0.54 J/K/mol
315.65 K, 33651 kPa
  molar heat capacity at constant volume: 73 ± 0.55 J/K/mol
316.28 K, 14048 kPa
  molar heat capacity at constant volume: 72.58 ± 0.54 J/K/mol
318.5 K, 15656 kPa
  molar heat capacity at constant volume: 72.87 ± 0.55 J/K/mol
320.54 K, 2597 kPa
  molar heat capacity at constant volume: 72.71 ± 0.54 J/K/mol
320.74 K, 17265 kPa
  molar heat capacity at constant volume: 73.03 ± 0.55 J/K/mol
322.97 K, 18872 kPa
  molar heat capacity at constant volume: 73.22 ± 0.55 J/K/mol
323.02 K, 4128 kPa
  molar heat capacity at constant volume: 72.98 ± 0.55 J/K/mol
325.22 K, 20482 kPa
  molar heat capacity at constant volume: 73.26 ± 0.55 J/K/mol
325.5 K, 5662 kPa
  molar heat capacity at constant volume: 73.54 ± 0.55 J/K/mol
327.49 K, 22098 kPa
  molar heat capacity at constant volume: 73.84 ± 0.55 J/K/mol
328.01 K, 7206 kPa
  molar heat capacity at constant volume: 73.45 ± 0.55 J/K/mol
329.78 K, 23723 kPa
  molar heat capacity at constant volume: 73.46 ± 0.55 J/K/mol
330.53 K, 8756 kPa
  molar heat capacity at constant volume: 73.25 ± 0.55 J/K/mol
332.09 K, 25355 kPa
  molar heat capacity at constant volume: 73.79 ± 0.55 J/K/mol
333.07 K, 10311 kPa
  molar heat capacity at constant volume: 73.52 ± 0.55 J/K/mol
334.44 K, 27002 kPa
  molar heat capacity at constant volume: 74.11 ± 0.55 J/K/mol
335.63 K, 11877 kPa
  molar heat capacity at constant volume: 73.69 ± 0.55 J/K/mol
336.81 K, 28665 kPa
  molar heat capacity at constant volume: 74.55 ± 0.56 J/K/mol
338.21 K, 13448 kPa
  molar heat capacity at constant volume: 74.18 ± 0.55 J/K/mol
339.21 K, 30343 kPa
  molar heat capacity at constant volume: 75.43 ± 0.56 J/K/mol
340.82 K, 15034 kPa
  molar heat capacity at constant volume: 74.59 ± 0.56 J/K/mol
341.66 K, 32044 kPa
  molar heat capacity at constant volume: 75.07 ± 0.56 J/K/mol
343.45 K, 16629 kPa
  molar heat capacity at constant volume: 74.42 ± 0.56 J/K/mol
344.14 K, 33761 kPa
  molar heat capacity at constant volume: 74.99 ± 0.56 J/K/mol
